Data published in patent US20240025906A1 (NEURON23, INC., priority 2022, published 2024).
Read-outs that look alike come from different tables or passages of the source.

Assays:
TYK2 JH2 = biological target: T1, TYK2 JH2 (Homo sapiens, UniProt P29597); assay: TYK2 JH2 binding assay (KINOMEscan KdELECT competitive binding); settings: TYK2 JH2 domain
T1 construct: purchased DiscoverX (KINOMEscan KdELECT service); host or cells: E. coli BL21-derived (T7 phage display) or HEK-293
Summary of the method: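 The assay measures displacement of DNA- or phage-tagged TYK2 pseudokinase domain from an affinity resin; compound binding lowers the amount captured, read by qPCR. Incubation lasts 1 h at room temperature.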

[1] = tested on: JAK1/TYK2 pSTAT5 (Tyr694/699) in THP-1 cell line; assay: IFNa-stimulated JAK1/TYK2 pSTAT5 (Tyr694/699) inhibition cellular assay, AlphaLISA; assay type: cell-based; settings: Homo sapiens, THP-1 cells, AlphaLISA (Assay B)
Summary of the method: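 An eight-point 6-fold titration of compound (0.04–10000 nM final) is given to THP-1 cells for 1 h before 30 min of IFNa exposure. Phospho-STAT5 is read by AlphaLISA at 615 nm. IC50 values are derived by logistic regression with bottom set to 0 and Hill slope set to −1.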

[2] = KINOMEscan KdELECT (Assay A), read-out: Biochemical TYK2_JH2_Kd
[3] = IFNa-stimulated, read-out: Cellular THP1_IFNa-pSTATS_IC50
[4] = DiscoverX KINOMEscan KdELECT (Assay A), read-out: Biochemical TYK2_DiscoverX_JH2_BND_Kd
[5] = IFNa-stimulated, read-out: Cellular_THP1_IFNa-pSTATS_TYK2
[6] = KINOMEscan KdELECT (Assay A), read-out: Biochemical TYK2_DiscoverX_JH2_BND_Kd

T1 sequence (P29597 589-875 limits assumed): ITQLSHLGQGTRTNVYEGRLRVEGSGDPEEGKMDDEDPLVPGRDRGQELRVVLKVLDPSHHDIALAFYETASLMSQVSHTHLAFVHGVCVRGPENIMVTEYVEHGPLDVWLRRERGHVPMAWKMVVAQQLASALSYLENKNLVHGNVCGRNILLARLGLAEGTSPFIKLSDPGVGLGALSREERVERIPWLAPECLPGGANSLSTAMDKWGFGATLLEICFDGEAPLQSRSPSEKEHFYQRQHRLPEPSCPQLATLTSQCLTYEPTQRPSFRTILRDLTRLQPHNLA

SMILES | Kd (TYK2 JH2; [4]) | IC50 [1, 5] | Kd (TYK2 JH2; [6]) | also measured
CNc1ncc(CCc2ccccc2)c2cc(NC(=O)C3CC3)ncc12 [Example 31, N-(8-(methylamino)-5-phenethyl-2,7-naphthyridin-3-yl)cyclopropanecarboxamide] |  |  |  | Kd (TYK2 JH2; [2]): ≤ 100 nM; IC50 [1, 3]: > 500 nM
CNc1ncc(-c2nc3cc(N4CCO[C@@H](C(C)(F)F)C4)ccc3o2)c2cc(NC(=O)C3CC3)ncc12 (single isomer, unassigned) [Example 332] | ≤ 100 nM | ≤ 500 nM |  | 
CNc1ncc(-c2nc3ccc(C#N)cc3o2)c2cc(NC(=O)C3CC3)ncc12 [Example 213, N-(5-(6-cyanobenzo[d]oxazol-2-yl)-8-(methylamino)-2,7-naphthyridin-3-yl)cyclopropanecarboxamide] | ≤ 100 nM | ≤ 500 nM |  | 
CNc1ncc(-c2nc3ccc(OC(F)(F)F)cn3n2)c2cc(NC(=O)C3CC3)ncc12 [Example 493A, N-(8-(methylamino)-5-(6-(trifluoromethoxy)-[1,2,4]triazolo[1,5-a]pyridin-2-yl)-2,7-naphthyridin-3-yl)cyclopropanecarboxamide] | ≤ 100 nM | ≤ 500 nM |  | 
CNc1ncc(C#Cc2cc3ccoc3cn2)c2cc(NC(=O)C3CC3)ncc12 [Example 667, N-(5-(furo[2,3-c]pyridin-5-ylethynyl)-8-(methylamino)-2,7-naphthyridin-3-yl)cyclopropanecarboxamide] |  | ≤ 500 nM | ≤ 100 nM | 
[2H]C([2H])([2H])Nc1ncc(-c2nc3ccccc3o2)c2cc(NC(=O)C3CC3F)ncc12 (racemic) [Example 433, N-(5-(benzo[d]oxazol-2-yl)-8-((methyl-d3)amino)-2,7-naphthyridin-3-yl)-2-fluorocyclopropane-1-carboxamide] | ≤ 100 nM | ≤ 500 nM |  | 
CNc1ncc(-c2nc3ccccc3o2)c2cc(NC(=O)C(C)C)ncc12 [Example 429, N-(5-(benzo[d]oxazol-2-yl)-8-(methylamino)-2,7-naphthyridin-3-yl)isobutyramide] | ≤ 100 nM | > 500 nM |  | 
CNc1ncc(C#CC(=O)C2CC2)c2cc(NC(=O)C3CC3)ncc12 [Example 127, N-(5-(3-cyclopropyl-3-oxoprop-1-yn-1-yl)-8-(methylamino)-2,7-naphthyridin-3-yl)cyclopropanecarboxamide] |  |  |  | Kd (TYK2 JH2; [2]): ≤ 100 nM; IC50 [1, 3]: > 500 nM
CNc1ncc(C#Cc2ccc(S(=O)(=O)C3CC3)cc2)c2cc(NC(=O)C3CC3)ncc12 [Example 637, N-(5-((4-(cyclopropylsulfonyl)phenyl)ethynyl)-8-(methylamino)-2,7-naphthyridin-3-yl)cyclopropanecarboxamide] |  | ≤ 500 nM | ≤ 100 nM | 
CNc1ccc(C#Cc2cnc(NC)c3cnc(NC(=O)C4CC4)cc23)cc1 [Example 651, N-(8-(methylamino)-5-((4-(methylamino)phenyl)ethynyl)-2,7-naphthyridin-3-yl)cyclopropanecarboxamide] |  | ≤ 500 nM | ≤ 100 nM | 
CCc1cc2cc(NC(=O)C3CC3)ncc2c(NC)n1 [Example 165, N-(6-ethyl-8-(methylamino)-2,7-naphthyridin-3-yl)cyclopropanecarboxamide] |  |  |  | Kd (TYK2 JH2; [2]): ≤ 100 nM; IC50 [1, 3]: > 500 nM
CNc1ncc(-c2nc3cc(N4CCOCC4)ccc3o2)c2cc(NC(=O)C3CC3)nnc12 [Example 914, N-(8-(methylamino)-5-(5-morpholinobenzo[d]oxazol-2-yl)pyrido[3,4-c]pyridazin-3-yl)cyclopropancarboxamide] |  | ≤ 500 nM | ≤ 100 nM | 
CNc1ncc(C#Cc2ccc3c(c2)n(C)c(=O)n3C)c2cc(NC(=O)C3CC3)ncc12 [Example 614, N-(5-((1,3-dimethyl-2-oxo-2,3-dihydro-1H-benzo[d]imidazol-5-yl)ethynyl)-8-(methylamino)-2,7-naphthyridin-3-yl)cyclopropanecarboxamide] |  | ≤ 500 nM | ≤ 100 nM | 
CNc1ncc(-c2nc3ccc(N4CCOCC4)cn3n2)c2cc(NC(=O)[C@@H](C)F)ncc12 (single isomer, unassigned) [Example 532] | ≤ 100 nM | ≤ 500 nM |  | 
CNc1ncc(N2CCCCC2)c2cc(NC(=O)C3CC3)ncc12 [Example 56, N-(8-(methylamino)-5-(piperidin-1-yl)-2,7-naphthyridin-3-yl)cyclopropanecarboxamide] |  |  |  | Kd (TYK2 JH2; [2]): ≤ 100 nM; IC50 [1, 3]: > 500 nM
CNc1ncc(-c2nc3cc(OC4CCC4C(C)(C)OC)ccc3o2)c2cc(NC(=O)C3CC3)ncc12 (centres unmarked) [Example 346, N-(5-(5-(2-(2-methoxypropan-2-yl)cyclobutoxy)benzo[d]oxazol-2-yl)-8-(methylamino)-2,7-naphthyridin-3-yl)cyclopropanecarboxamide] | ≤ 100 nM | ≤ 500 nM |  | 

Further lines, with some results ahead:

Kd (TYK2 JH2; [4]) | IC50 [1, 5] | Kd (TYK2 JH2; [6]) | SMILES | also measured
≤ 100 nM | ≤ 500 nM |  | CNc1ncc(-c2nc3ccc(N4CCC(F)CC4)cn3n2)c2cc(NC(=O)C3CC3)ncc12 [Example 484, N-(5-(6-(4-fluoropiperidin-1-yl)-[1,2,4]triazolo[1,5-a]pyridin-2-yl)-8-(methylamino)-2,7-naphthyridin-3-yl)cyclopropanecarboxamide] | 
 |  | ≤ 100 nM | CNc1ncc(-c2nc3ccc(N4CCOC(C(C)O)C4)cn3n2)c2cc(NC(=O)C3CC3)ncc12 (centres unmarked) [Example 1043] | IC50 ([1]; IFNa-stimulated pSTAT5 (Tyr694/699), read-out: Cellular_THP1_IFNa-pSTATS_TYK2): ≤ 500 nM
 | ≤ 500 nM | ≤ 100 nM | CCn1ncc(C#Cc2cnc(NC)c3cnc(NC(=O)C4CC4)cc23)n1 [Example 805, N-(5-((2-ethyl-2H-1,2,3-triazol-4-yl)ethynyl)-8-(methylamino)-2,7-naphthyridin-3-yl)cyclopropanecarboxamide] | 
 | ≤ 500 nM | ≤ 100 nM | CNc1ncc(C#Cc2ccc(OC(C)C)cc2)c2cc(NC(=O)C3CC3)ncc12 [Example 634, N-(5-((4-isopropoxyphenyl)ethynyl)-8-(methylamino)-2,7-naphthyridin-3-yl)cyclopropanecarboxamide] | 
≤ 100 nM | ≤ 500 nM |  | [2H]C([2H])([2H])Nc1ncc(-c2nc3cc(N4CCO[C@H](C)C4)ccc3o2)c2cc(NC(=O)[C@H]3C[C@H]3C)ncc12 [Example 441, (1S,2R)-2-methyl-N-(8-((methyl-d3)amino)-5-(5-((R)-2-methylmorpholino)benzo[d]oxazol-2-yl)-2,7-naphthyridin-3-yl)cyclopropane-1-carboxamide] | 
 | ≤ 500 nM | ≤ 100 nM | CNc1ncc(C#Cc2ccnc(Cl)c2)c2cc(NC(=O)C3CC3)ncc12 [Example 992, N-[5-[2-(2-chloro-4-pyridyl)ethynyl]-8-(methylamino)-2,7-naphthyridin-3-yl]cyclopropanecarboxamide] | 
 | ≤ 500 nM | ≤ 100 nM | CNc1ncc(C#Cc2ccc(OC3CC3)cc2)c2cc(NC(=O)C3CC3)ncc12 [Example 638, N-(5-((4-cyclopropoxyphenyl)ethynyl)-8-(methylamino)-2,7-naphthyridin-3-yl)cyclopropanecarboxamide] | 
≤ 100 nM | ≤ 500 nM |  | CNc1ncc(-c2nc3cc(N4CCC[C@H](OC)C4)ccc3o2)c2cc(NC(=O)C3CC3)ncc12 [Example 291, (S)-N-(5-(5-(3-methoxypiperidin-1-yl)benzo[d]oxazol-2-y1)-8-(methylamino)-2,7-naphthyridin-3-yl)cyclopropanecarboxamide] | 
 | > 500 nM | ≤ 100 nM | CNc1ncc(-c2nc3n(n2)CCCC3)c2cc(NC(=O)C3CC3)ncc12 [Example 842, N-(8-(methylamino)-5-(5,6,7,8-tetrahydro-[1,2,4]triazolo[1,5-a]pyridin-2-yl)-2,7-naphthyridin-3-yl)cyclopropanecarboxamide] | 
